Results from patent publication EP0258134A1, “Therapeutical compositions containing benzhydryl thiomethane derivatives” (LABORATOIRE L. LAFON, priority 1986, dated 1988).

What was measured:
Solubility in water = assay type: physicochemical; details: water
Description: Le composé est une poudre blanche, insoluble dans l'éther de pétrole, soluble dans l'éther, l'acé-tate d'éthyle et les alcools. Sa solubilité dans l'eau est inférieure à 0,1%.

souris [1] = assay: Global behaviour and reactivities, mouse, i.p.; assay type: in vivo
Protocol: (§1) Le composé CRL 41 334, en suspension dans une solution de gomme arabique, a été administré par voie intrapéritonéale sous un volume de 20 ml/kg chez la souris (mâle, NMRI, C.E.R. Janvier) et de 5 ml/kg chez le rat (mâle, CD₁; SPRAGUE DAWLEY, Charles River).
(§2) Des lots de 3 animaux sont observés avant, puis 15 mn, 30 mn, 1h, 2h, 3h et 24 heures après l'administration du composé CRL 41 334.
Le CRL 41 055, en suspension dans une solution de gomme arabique, a été administré par voie intrapéritonéale sous un volume de 20 ml/kg chez la souris (mâle, NMRI, Evic Ceba).
(§3) Le CRL 40 956, en suspension dans une solution de gomme arabique a été administré par voie intrapéritonéale sous un volume de 20 ml/kg chez la souris (mâle, NMRI, Evic Céba) et de 5 ml/kg chez le rat (mâle, CD₁, Sprague Dawley, Charles River).
(§4) Des lots de 3 animaux sont observés avant, puis 15 mn, 30 mn, 1 h, 2 h, 3 h et 24 heures après l'administration de CRL 40 956.

rat [2] = assay: Global behaviour and reactivities, rat, i.p.; assay type: in vivo
Protocol: as §1, §2, §3, §4

rat [3] = assay: Interaction with amphetamine, rat; assay type: in vivo; details: rat, 16, mais surtout 64 mg/kg, amphétamine 2 mg/kg i.p.
Protocol: L'amphétamine (2 mg/kg) est injectée par Voie intrapéritonéale à des lots de 6 rats, une demi-heure après l'administration du composé CRL 41 334.

souris [4] = assay: Interaction with reserpine, mouse; assay type: in vivo
Protocol: Quatre heures après l'injection intrapéritonéale de 2,5 mg/kg de réserpine, des lots de 12 souris reçoivent le composé CRL 41 334. • 1 - Action sur la température • 2 - Action sur le ptosis

souris [5] = assay: Interaction with oxotremorine, mouse; assay type: in vivo; details: oxotrémorine 0,5 mg/kg i.p.
Protocol: Le composé CRL 41 334 est administré à des lots de 6 souris une demi-heure avant l'injection intrapéritonéale de 0,5 mg/kg d'oxotrémorine.

souris [6] = assay: Four-plate test; assay type: in vivo; details: half an hour after administration
Description: (§5) Le test est pratiqué sur des lots de 10 souris, une demi-heure après l'administration du composé CRL 41 334.

souris [7] = assay: Traction test; assay type: in vivo; details: half an hour after administration
Description: as §5

souris [8] = assay: Electroshock; assay type: in vivo; details: 128 mg/kg
Description: as §5

souris [9] = assay: Motility reduced by habituation to the enclosure; assay type: in vivo; details: dès la dose de 2 mg/kg
Protocol: Après 18 heures de séjour dans les actimè-tres, les souris (6 par dose, 12 témoins) reçoivent le composé CRL 41 334. Elles sont aussitôt replacées dans leurs enceintes respectives et, une demi-heure plus tard, on enregistre leur motilité pendant 30 minutes.
Après 18 heures de séjour dans les actimètres, les souris (6 par dose, 12 émoins) reçoivent le CRL 41 055. Elles sontaussitôt replacées dans leurs enceintes respectives et, une demi-heure plus tard, on enregistre leur motilité pendant 30 minutes.

souris [10] = assay: Asphyxic anoxia (gallamine triethiodide); assay type: in vivo; details: 128 mg/kg, triiodoéthylate de gallamine 32 mg/kg i.p.
Protocol: Des lots de 20 souris reçoivent le composé CRL 41 334 une demi-heure avant l'administration intrapéritonéale de 32 mg/kg de triiodoéthylate de gallamine.
Des lots de 10 souris reçoivent le CRL 40 956 une demi-heure avant l'administration intrapé-ritonéale de 32 mg/kg de triodoéthylate de Gallamine.

souris [11] = assay: Interaction with barbital; assay type: in vivo; details: souris, 8, 32 et 128mg/kg, barbital 220 mg/kg i.p.
Protocol: Une demi-heure après l'administration du composé CRL 41 334, des lots de 20 souris reçoivent une injection intrapéritonéale de barbital ([…]).
Une demi-heure après l'administration du CRL 40 956 des lots de 10 souris reçoivent une injection intrapéritonéale de 200 mg/kg de barbital.

[12] = souris, 128 mg/kg, réserpine 2,5 mg/kg i.p.

## NC(=O)CSC(c1ccc(F)cc1)c1ccc(F)cc1 [CRL 41 334, 2-(4,4ʹ-difluorobenzhydrylthio)acétamide]
Solubility in water
  solubility: < 1000 µg/mL
Souris [1]; souris, 128 mg/kg i.p.
  comportement et réactivités: sédation pendant 30 minutes
Souris [1]; souris, 128 mg/kg i.p., à 30 minutes, durée 1 heure
  Hypothermie: -4,1 °
Souris [1]; souris, 2, 8 et 32 mg/kg i.p.
  comportement et réactivités: pas de modifications nettes du comportement et des réactivités
Rat [2]; rat, 64 mg/kg i.p.
  comportement et réactivités: sédation pendant 15 minutes
Rat [2]; rat, 64 mg/kg i.p., à 1 heure
  diamètre pupillaire: mydriase très modérée et brève
Rat [2]; rat, 1, 4 et 16 mg/kg i.p.
  comportement, réactivités, variation du diamètre pupillaire et de la température rectale: comparables à ceux du lot témoin
Rat [3]
  stéréotypies amphétaminiques: potentialise les stéréotypies amphétaminiques
Souris [4]; [12]
  hypothermie réserpinique: aggrave modérément l'hypothermie réserpinique
  ptosis: n'est pas modi-fié
Souris [4]; souris, 8, 32 ou 128 mg/kg, au temps 24 heures
  hypothermie et ptosis réserpiniques: semble s'opposer à l'hypothermie et au ptosis réserpiniques
Souris [5]; 128 mg/kg
  Action sur la température: aggrave l'hypothermie induite par l'oxotrémorine
  Action sur les symptômes chlolinergiques périphériques: diminue la défécation sans modifier la salivation et la lacrymation
Souris [5]
  Action sur les tremblements: ne sont pas modifiés
Souris [6]
  nombre de passages punis: ne modifie pas
Souris [7]
  incapacité motrice: ne provoque pas d'incapacité motrice majeure
Souris [8]
  effets convulsivants de l'électrochoc: s'oppose faiblement aux effets convulsivants
  effets létaux de l'électrochoc: sans modifier les effets létaux
Souris [9]
  activité motrice chez la souris habituée à son enceinte: reprise nette de l'activité motrice
Souris [10]
  délai d'apparition de la mort: augmente le délai d'apparition de la mort
  délai d'apparition des convulsions: n'est pas modifié
Souris [11]
  durée du sommeil barbiturique: diminution importante de la durée du sommeil barbiturique
